# Experimental data taken from paper PMC11665553, “12-Lipoxygenase inhibition delays onset of autoimmune diabetes in human gene replacement mice” (JCI Insight, 2024).
# Where “and” joins values, the source holds several entries; their conditions need not be identical. Equal entries are not always repeated.
# Tests used:
# NOD.hALOX12 mice [1] = assay: Flow cytometry of pancreatic lymph nodes and spleen of NOD.hALOX12 mice; assay type: in vivo, mouse; parameters: FoxP3 / CD4 / IFNg / IL-17a: unit not given here; settings: for CD4 / FoxP3 / IFNg / IL-17a: flow cytometry, individual animals, listed as VLX
# Procedure: Spleen and pLNs were harvested, homogenized, and passed through a 70 μm strainer to obtain a single-cell suspension. Cell pellets were resuspended in red blood cell (RBC) lysing solution to remove red blood cells. […] The following surface markers were used — CD4-FITC (BioLegend, 100510; 1:100), CD8–PerCP-Cy5.5 (BioLegend, 100734; 1:100), and CD19-AF700 (BioLegend, 152414; 1:100). Following incubation of surface antibodies, cells were washed with stain buffer and then permeabilized using fix/perm buffer (BD Biosciences, 554722) before intracellular staining. The following intracellular antibodies from BD Biosciences were used: FoxP3-AF647 (560401; 1:100), IFN-γ–PE (554412; 1:50), and IL-17a–APCCY7 (560821; 1:50). Cells were analyzed on the Attune NxT Flow Cytometer (Thermo Fisher Scientific). Data were analyzed by FlowJo software (BD Biosciences).
# NOD.hALOX12 mice [2] = assay: NanoString spatial proteomics of insulitic and insulin-positive areas in NOD.hALOX12 mice; assay type: in vivo, mouse
# From the text: To specifically interrogate the nature of immune cells within the insulitic region, we performed spatial tissue-based proteomics (NanoString). We used insulin immunostaining and nuclei staining to identify β cells and the surrounding insulitic regions. Prevalidated antibodies in the GeoMx mouse immune panel were used to probe for immune cell subtypes in the peri-islet insulitic region and within the islet. […] This reduction in myeloid cell populations was accompanied by a decrease in T and B cells populations, including CD4^+, CD3^+, CD8^+, and CD19^+ cells (Figure 2F and Supplemental Figure 2, A and B). […] Enhanced PD-L1/PD-1 interactions shift T cells to less aggressive, more regulatory phenotypes ([21]).
# Paraffin embedded pancreata were used for NanoString spatial proteomics analysis. Tissues were stained with morphology markers: AF-647–conjugated insulin (Cell Signaling Technology, 9008s; 1:400) and nuclei marker (SYTO13). Tissues were hybridized using a pre-validated mouse GeoMx Immune cell panel (NanoString, GMX-PROCONCT-MICP) comprising the following markers: PD-1, CD11c, CD8a, PanCk, MHC II, CD19, CTLA4, SMA, CD11b, CD3e, fibronectin, Ki-67, CD4, GZMB, F4/80, CD45, PD-L1; housekeeping genes: histone H3, S6, GAPDH; and IgG antibodies: Rb IgG, Rat IgG2a, and Rat IgG2b for background subtraction. All markers were conjugated to unique UV-photocleavable oligos for indexing. At least 5 or 6 islets with insulitis were chosen as regions of interest (ROIs) per mouse based on the morphology markers (insulin and nuclei). The ROIs were segmented into insulitic region and insulin^+ region for each islet. Oligonucleotides from the segmented ROIs were photocleaved, collected in a 96-well plate, and reads were counted using nCounter (NanoString). Scaling was performed to normalize for any differences in tissue surface area and depth. After scaling, reads were normalized to housekeeping markers and background was subtracted using IgG markers.
# [3] = female NOD.hALOX12 mice, 30 mg/kg p.o., 4 weeks
# [4] = Insulitic Area, Fig 2F source data, individual values
# [5] = sheet SFig 2A, individual regions of interest
structure (smiles),measurement,setting,value
COc1cccc(CNc2ccc(S(=O)(=O)Nc3nc4ccccc4s3)cc2)c1O [VLX-1005],CD4+Foxp3+ regulatory T cells in pancreatic lymph nodes,NOD.hALOX12 mice [1]; [3],increase
same,Tregs in spleen,NOD.hALOX12 mice [1]; [3],no changes
same,CD4,NOD.hALOX12 mice [1]; sheet SFig 2C,65.7 and 58.8 and 61.4 and 58 and 54.2
same,FoxP3,NOD.hALOX12 mice [1]; sheet SFig 2C,4.31 and 7.46 and 5.24 and 7.28 and 5.6
same,IFNg,NOD.hALOX12 mice [1]; sheet SFig 2C,0.037 and 0.092 and 0.047 and 0.058 and 0.044
same,IL-17a,NOD.hALOX12 mice [1]; sheet SFig 2C,2.96 and 5.74 and 6.17 and 6.96 and 7.02
same,CD4,NOD.hALOX12 mice [1]; sheet SFig 2D,46.2 and 45.1 and 46.1 and 45.5 and 43.7
same,FoxP3,NOD.hALOX12 mice [1]; sheet SFig 2D,8.7 and 7.15 and 4.07 and 12.1 and 9.49
same,IFNg,NOD.hALOX12 mice [1]; sheet SFig 2D,0.36 and 0.33 and 0.39 and 0.29 and 0.4
same,IL-17a,NOD.hALOX12 mice [1]; sheet SFig 2D,3.2
same,CD11b,NOD.hALOX12 mice [2]; [4],5.147 and 5.277 and 5.327 and 5.94 and 5.07 and 5.565 and 5.634 and 5.068 and 4.855 and 6.029
same,CD11c,NOD.hALOX12 mice [2]; [4],2.876 and 1.502 and 2.598 and 4.232 and 2.537 and 2.93 and 3.146 and 2.8254 and 2.641 and 4.743
same,CD45 (first CD45 row),NOD.hALOX12 mice [2]; [4],5.25 and 3.49 and 3.636 and 8.487 and 3.645 and 3.942 and 4.828 and 3.892 and 3.054 and 8.111
same,CD45 (second CD45 row),NOD.hALOX12 mice [2]; [4],-0.2135 and 0.0264 and 0.3853 and 4.031 and -1.253 and 0.3826 and 0.2212 and -1.155 and 0.06453 and 3.867
same,CTLA4,NOD.hALOX12 mice [2]; [4],1.939 and 2.368 and 2.417 and 1.307 and 2.276 and 2.4212 and 3.583 and 2.587 and 3.2171 and 2.563
same,F4/80,NOD.hALOX12 mice [2]; [4],0.2536 and 0.7983 and 1.224 and 1.023 and -0.1728 and 1.356 and 2.254 and 0.8327 and -0.1455 and 1.282
same,GZMB,NOD.hALOX12 mice [2]; [4],4.352 and 4.4072 and 5.2506 and 2.9798 and 5.432 and 6.733 and 6.076 and 5.882 and 4.529 and 3.344
same,MHC II,NOD.hALOX12 mice [2]; [4],-0.6174 and 1.207 and 0.8883 and -0.3662 and -0.4066 and -0.144 and -0.3371 and 1.073 and -0.07508 and -1.247
same,PD-1,NOD.hALOX12 mice [2]; [4],-0.3236 and 0.1793 and 1.041 and 1.538 and -1.244 and -0.5413 and -0.07496 and 0.52 and -0.1742 and 0.5415
same,PD-L1,NOD.hALOX12 mice [2]; [4],1.897 and 1.722 and 1.56 and 0.2193 and 1.6509 and 2.371 and 2.045 and 2.4831 and 1.059 and 0.2909
same,"Myeloid population subtypes (macrophages, dendritic cells) in insulitic and islet areas",NOD.hALOX12 mice [2]; [3],notable reduction
same,PD-L1 levels (spatial proteomics),NOD.hALOX12 mice [2]; [3],increased levels
same,"T and B cell populations (CD4+, CD3+, CD8+, CD19+) in insulitic and islet areas",NOD.hALOX12 mice [2]; [3],decrease
same,CD4,NOD.hALOX12 mice [2]; [5],0.3826 and 0.2212 and -1.155 and 0.06453 and 3.867 and -0.2135 and 0.0264 and 0.3853 and 4.031 and -1.253
same,CD8,NOD.hALOX12 mice [2]; [5],1.856 and 1.666 and 1.577 and 1.141 and 2.8916 and 1.46 and 1.4593 and 2.166 and 2.266 and 1.44
same,CD11b,NOD.hALOX12 mice [2]; [5],5.565 and 5.634 and 5.068 and 4.855 and 6.029 and 5.147 and 5.277 and 5.327 and 5.94 and 5.07
same,CD11c,NOD.hALOX12 mice [2]; [5],2.93 and 3.146 and 2.8254 and 2.641 and 4.743 and 2.876 and 1.502 and 2.598 and 4.232 and 2.537
same,CD19,NOD.hALOX12 mice [2]; [5],0.2718 and 0.8536 and 0.6292 and 1.249 and 2.864 and 0.1873 and -0.4029 and 0.4865 and 2.831 and -0.3159
same,CD-3e,NOD.hALOX12 mice [2]; [5],4.049 and 3.547 and 4.013 and 3.889 and 3.319 and 3.27 and 3.43 and 3.812 and 3.482 and 3.738
same,CTLA4,NOD.hALOX12 mice [2]; [5],2.4212 and 3.583 and 2.587 and 3.2171 and 2.563 and 1.939 and 2.368 and 2.417 and 1.307 and 2.276
same,F4/80,NOD.hALOX12 mice [2]; [5],1.356 and 2.254 and 0.8327 and -0.1455 and 1.282 and 0.2536 and 0.7983 and 1.224 and 1.023 and -0.1728
same,GZMB,NOD.hALOX12 mice [2]; [5],6.733 and 6.076 and 5.882 and 4.529 and 3.344 and 4.352 and 4.4072 and 5.2506 and 2.9798 and 5.432
same,PD-1,NOD.hALOX12 mice [2]; [5],-0.5413 and -0.07496 and 0.52 and -0.1742 and 0.5415 and -0.3236 and 0.1793 and 1.041 and 1.538 and -1.244
